Measured values reported in patent US20230131899A1, “INHIBITORS OF MICROBIALLY INDUCED AMYLOID” (Axial Therapeutics, Inc., priority 2020, published 2023).
Like-named read-outs stand apart in the source and are kept apart here.

Biological target: T1, human α-synuclein (Homo sapiens, UniProt P37840)
T1 construct: the full-length gene for untagged human α-synuclein was inserted; made in house; host or cells: E. coli BL21(DE3), plasmid derived from pT7 or pET11a
Assay: Cell-free Thioflavin T assay of α-synuclein aggregation (αSyn ThT Assay)
Type: biochemical
Conditions: αSyn 50 μM, compounds 100 μM
Summary of the method: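 Inhibition is reported as 100% minus background-corrected ThT signal relative to vehicle wells, taken at 36, 47, 48 or 72 h or the last read. Reactions held 50 μM recombinant α-synuclein, 20-100 μM compound, 20-40 μM ThT and 1% DMSO. Incubation was at 37° C., shaken, with a glass bead.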

[1] = class symbol, read-out: αSyn ThT Assay % inhibition, activity range
[2] = mean percent inhibition relative to DMSO control, read-out: αSyn ThT Assay % inhibition

| Compound | inhibition at 100 µM [1] | inhibition at 100 µM [2] |
| --- | --- | --- |
| CN1CC(C(=O)O)n2c(c(-c3cccc(C(F)(F)F)c3)c(Cc3cccc4ccccc34)c(C(=O)N3CCOCC3)c2=O)S1(=O)=O (centres unmarked) [Compound 160, 2-methyl-7-(morpholine-4-carbonyl)-8-(naphthalen-1-ylmethyl)-6-oxo-9-(3-(trifluoromethyl)phenyl)-3,4-dihydro-2H,6H-pyrido[1,2-e][1,2,5] thiadiazine-4-carboxylic acid 1,1-dioxide] | 11 to 30% | 17% |
| CCc1c(Cc2cccc3ccccc23)c(-c2cccc(C(F)(F)F)c2)c2n(c1=O)C(C(=O)O)CN2Cc1ccc(OC)cc1 (centres unmarked) [Compound 161, 6-ethyl-1-(4-methoxybenzyl)-7-(naphthalen-1-ylmethyl)-5-oxo-8-(3-(trifluoromethyl)phenyl)-1,2,3,5-tetrahydroimidazo[1,2-a]pyridine-3-carboxylic acid] | 31 to 60% | 44% |
| CCCN1CC(C(=O)O)n2c1c(-c1cccc(C(F)(F)F)c1)c(Cc1cccc3ccccc13)c(Cl)c2=O (centres unmarked) [Compound 162, 6-chloro-7-(naphthalen-1-ylmethyl)-5-oxo-1-propyl-8-(3-(trifluoromethyl)phenyl)-1,2,3,5-tetrahydroimidazo[1,2-a]pyridine-3-carboxylic acid] | > 60% | 67% |
| CCCCN1CC(C(=O)O)n2c1c(-c1cccc(C(F)(F)F)c1)c(Cc1cccc3ccccc13)c(Cl)c2=O (centres unmarked) [Compound 163, 1-butyl-6-chloro-7-(naphthalen-1-ylmethyl)-5-oxo-8-(3-(trifluoromethyl)phenyl)-1,2,3,5-tetrahydroimidazo[1,2-a]pyridine-3-carboxylic acid] | 31 to 60% | 47% |
| CC(C)CN1CC(C(=O)O)n2c1c(-c1cccc(C(F)(F)F)c1)c(Cc1cccc3ccccc13)c(Cl)c2=O (centres unmarked) [Compound 164, 6-chloro-1-isobutyl-7-(naphthalen-1-ylmethyl)-5-oxo-8-(3-(trifluoromethyl)phenyl)-1,2,3,5-tetrahydroimidazo[1,2-a]pyridine-3-carboxylic acid] | 31 to 60% | 43% |
| O=C(O)C1CN(CC2CCCC2)c2c(-c3cccc(C(F)(F)F)c3)c(Cc3cccc4ccccc34)c(Cl)c(=O)n21 (centres unmarked) [Compound 167, 6-chloro-1-(cyclopentylmethyl)-7-(naphthalen-1-ylmethyl)-5-oxo-8-(3-(trifluoromethyl)phenyl)-1,2,3,5-tetrahydroimidazo[1,2-a]pyridine-3-carboxylic acid] | 31 to 60% | 45% |
| N#Cc1cccc(CN2CC(C(=O)O)n3c2c(-c2cccc(C(F)(F)F)c2)c(Cc2cccc4ccccc24)c(Cl)c3=O)c1 (centres unmarked) [Compound 168, 6-chloro-1-(3-cyanobenzyl)-7-(naphthalen-1-ylmethyl)-5-oxo-8-(3-(trifluoromethyl)phenyl)-1,2,3,5-tetrahydroimidazo[1,2-a]pyridine-3-carboxylic acid] | 31 to 60% | 43% |
| O=C(O)C1CN(Cc2cccnc2)c2c(-c3cccc(C(F)(F)F)c3)c(Cc3cccc4ccccc34)c(Cl)c(=O)n21 (centres unmarked) [Compound 169, 6-chloro-7-(naphthalen-1-ylmethyl)-5-oxo-1-(pyridin-3-ylmethyl)-8-(3-(trifluoromethyl)phenyl)-1,2,3,5-tetrahydroimidazo[1,2-a]pyridine-3-carboxylic acid] | 31 to 60% | 33% |
| O=C(O)C1CN(Cc2ccc(CO)cc2)c2c(-c3cccc(C(F)(F)F)c3)c(Cc3cccc4ccccc34)c(Cl)c(=O)n21 (centres unmarked) [Compound 170, 6-chloro-1-(4-(hydroxymethyl)benzyl)-7-(naphthalen-1-ylmethyl)-5-oxo-8-(3-(trifluoromethyl)phenyl)-1,2,3,5-tetrahydroimidazo[1,2-a]pyridine-3-carboxylic acid] | 11 to 30% | 30% |
| CCCN1CC(C(=O)O)n2c(c(-c3cccc(C(F)(F)F)c3)c(Cc3cccc4ccccc34)c(C(N)=O)c2=O)S1(=O)=O (centres unmarked) [Compound 172, 7-carbamoyl-8-(naphthalen-1-ylmethyl)-6-oxo-2-propyl-9-(3-(trifluoromethyl)phenyl)-3,4-dihydro-2H,6H-pyrido[1,2-e][1,2,5]thiadiazine-4-carboxylic acid 1,1-dioxide] | > 60% | 98% |
| CN(C)C(=O)c1c(Cc2cccc3ccccc23)c(-c2cccc(C(F)(F)F)c2)c2n(c1=O)C(C(=O)O)CN(C)S2(=O)=O (centres unmarked) [Compound 173, 7-(dimethylcarbamoyl)-2-methyl-8-(naphthalen-1-ylmethyl)-6-oxo-9-(3-(trifluoromethyl)phenyl)-3,4-dihydro-2H,6H-pyrido[1,2-e] [1,2,5] thiadiazine-4-carboxylic acid 1,1-dioxide] | > 60% | 86% |
| O=C(O)C1CN(Cc2ccncc2)c2c(-c3cccc(C(F)(F)F)c3)c(Cc3cccc4ccccc34)c(Cl)c(=O)n21 (centres unmarked) [Compound 174, 6-chloro-7-(naphthalen-1-ylmethyl)-5-oxo-1-(pyridin-4-ylmethyl)-8-(3-(trifluoromethyl)phenyl)-1,2,3,5-tetrahydroimidazo[1,2-a]pyridine-3-carboxylic acid] | 11 to 30% | 23% |
| CC(C)N1CC(C(=O)O)n2c(c(-c3cccc(C(F)(F)F)c3)c(Cc3cccc4ccccc34)c(C(N)=O)c2=O)S1(=O)=O (centres unmarked) [Compound 175, 7-carbamoyl-2-isopropyl-8-(naphthalen-1-ylmethyl)-6-oxo-9-(3-(trifluoromethyl)phenyl)-3,4-dihydro-2H,6H-pyrido[1,2-e][1,2,5]thiadiazine-4-carboxylic acid 1,1-dioxide] | > 60% | 98% |
| NC(=O)c1c(Cc2cccc3ccccc23)c(-c2cccc(C(F)(F)F)c2)c2n(c1=O)C(C(=O)O)CN(C1CCCC1)S2(=O)=O (centres unmarked) [Compound 176, 7-carbamoyl-2-cyclopentyl-8-(naphthalen-1-ylmethyl)-6-oxo-9-(3-(trifluoromethyl)phenyl)-3,4-dihydro-2H,6H-pyrido[1,2-e][1,2,5]thiadiazine-4-carboxylic acid 1,1-dioxide] | > 60% | 98% |
| CCCCN1CC(C(=O)O)n2c(c(-c3cccc(C(F)(F)F)c3)c(Cc3cccc4ccccc34)c(C(N)=O)c2=O)S1(=O)=O (centres unmarked) [Compound 177, 2-butyl-7-carbamoyl-8-(naphthalen-1-ylmethyl)-6-oxo-9-(3-(trifluoromethyl)phenyl)-3,4-dihydro-2H,6H-pyrido[1,2-e][1,2,5]thiadiazine-4-carboxylic acid 1,1-dioxide] | > 60% | 97% |
| O=C(O)C1CN(CCc2ccccc2)c2c(-c3cccc(C(F)(F)F)c3)c(Cc3cccc4ccccc34)c(Cl)c(=O)n21 (centres unmarked) [Compound 178, 6-chloro-7-(naphthalen-1-ylmethyl)-5-oxo-1-phenethyl-8-(3-(trifluoromethyl)phenyl)-1,2,3,5-tetrahydroimidazo[1,2-a]pyridine-3-carboxylic acid] | 31 to 60% | 43% |
| CC(C)N1CC(C(=O)O)n2c1c(-c1cccc(C(F)(F)F)c1)c(Cc1cccc3ccccc13)c(Cl)c2=O (centres unmarked) [Compound 179, 6-chloro-1-isopropyl-7-(naphthalen-1-ylmethyl)-5-oxo-8-(3-(trifluoromethyl)phenyl)-1,2,3,5-tetrahydroimidazo[1,2-a]pyridine-3-carboxylic acid] | > 60% | 72% |
| O=C(O)C1CN(CC2CCCCC2)c2c(-c3cccc(C(F)(F)F)c3)c(Cc3cccc4ccccc34)c(Cl)c(=O)n21 (centres unmarked) [Compound 180, 6-chloro-1-(cyclohexylmethyl)-7-(naphthalen-1-ylmethyl)-5-oxo-8-(3-(trifluoromethyl)phenyl)-1,2,3,5-tetrahydroimidazo[1,2-a]pyridine-3-carboxylic acid] | > 60% | 63% |
| O=C(O)C1CN(Cc2ccccc2CO)c2c(-c3cccc(C(F)(F)F)c3)c(Cc3cccc4ccccc34)c(Cl)c(=O)n21 (centres unmarked) [Compound 181, 6-chloro-1-(2-(hydroxymethyl)benzyl)-7-(naphthalen-1-ylmethyl)-5-oxo-8-(3-(trifluoromethyl)phenyl)-1,2,3,5-tetrahydroimidazo[1,2-a]pyridine-3-carboxylic acid] | 31 to 60% | 31% |
| O=C(O)C1CN(CC2CCOCC2)c2c(-c3cccc(C(F)(F)F)c3)c(Cc3cccc4ccccc34)c(Cl)c(=O)n21 (centres unmarked) [Compound 182, 6-chloro-7-(naphthalen-1-ylmethyl)-5-oxo-1-((tetrahydro-2H-pyran-4-yl)methyl)-8-(3-(trifluoromethyl)phenyl)-1,2,3,5-tetrahydroimidazo[1,2-a]pyridine-3-carboxylic acid] | 31 to 60% | 33% |
| NC(=O)c1c(Cc2cccc3ccccc23)c(-c2cccc(C(F)(F)F)c2)c2n(c1=O)C(C(=O)O)CN(CCCO)S2(=O)=O (centres unmarked) [Compound 184, 7-carbamoyl-2-(3-hydroxypropyl)-8-(naphthalen-1-ylmethyl)-6-oxo-9-(3-(trifluoromethyl)phenyl)-3,4-dihydro-2H,6H-pyrido[1,2-e][1,2,5]thiadiazine-4-carboxylic acid 1,1-dioxide] | > 60% | 75% |
| O=C(O)C1CN(Cc2ccccc2)c2c(-c3cccc(C(F)(F)F)c3)c(Cc3cccc4ccccc34)cc(=O)n21 (centres unmarked) [Compound 187, 1-benzyl-7-(naphthalen-1-ylmethyl)-5-oxo-8-(3-(trifluoromethyl)phenyl)-1,2,3,5-tetrahydroimidazo[1,2-a]pyridine-3-carboxylic acid] | 31 to 60% | 45% |
